From patent US20100152434A1, “Protein Kinase-binding Nucleosides and Associated Methods” (priority 2007, published 2010)
Read-outs that look alike come from different tables or passages of the source.

What was measured:
SF-295 = assay: cells; settings: Homo sapiens, SF-295, 48 h
LOX IMVI = assay: cells; settings: Homo sapiens, 48 h
OVCAR-4 = assay: cells; settings: Homo sapiens, OVCAR-4, 48 h
SK-OV-3 = assay: cells; settings: Homo sapiens, SK-OV-3, 48 h
HCC-2998 = assay: cells; settings: Homo sapiens, HCC 2998, 48 h
DU-145 = assay: cells; settings: Homo sapiens, DU-145, 48 h
MCF7 [1] = assay: cells; settings: Homo sapiens, MCF7, 48 h
IGROV1 = assay: cells; settings: Homo sapiens, IGROV-1, 48 h
HOP-62 = assay: cells; settings: Homo sapiens, HOP-62, 48 h
788-0 = assay: cells; settings: Homo sapiens, 48 h
MCF7 [2] = tested on: MCF7
[3] = Log10 Concentration −4.0, Molar
[4] = Log10 Concentration −5.0, Molar
[5] = Log10 Concentration −6.0, Molar
[6] = Log10 Concentration −7.0, Molar
[7] = Log10 Concentration −8.0, Molar

CCOC(=O)C[C@@H]1C(O[Si](C)(C)C(C)(C)C)[C@H](n2cnc3c(NC(=O)Nc4ccccc4)ncnc32)O[C@@H]1CNC(=O)NC (stereo partly shown) [Compound 10]
GI50 (SF-295): 5.73 µM | CC50 (SF-295; read-out: LC50): > 100 µM | GI50 (LOX IMVI): 5.46 µM | CC50 (LOX IMVI; read-out: LC50): > 100 µM | GI50 (OVCAR-4): 12.3 µM | CC50 (OVCAR-4; read-out: LC50): > 100 µM | TGI (MDA-MB-231/ATCC; 48 h): 4.13E−5 Molar | Percent Growth (MDA-MB-231/ATCC; [3]): −13% | Percent Growth (MDA-MB-231/ATCC; [4]): 20% | Percent Growth (MDA-MB-231/ATCC; [5]): 94% | Percent Growth (MDA-MB-231/ATCC; [6]): 103% | Percent Growth (MDA-MB-231/ATCC; [7]): 101% | TGI (BT-549; 48 h): >1.00E−4 Molar | Percent Growth (BT-549; [3]): 51% | Percent Growth (BT-549; [4]): 67% | Percent Growth (BT-549; [5]): 110% | Percent Growth (BT-549; [6]): 109% | Percent Growth (BT-549; [7]): 104% | TGI (RPMI-8226; 48 h): 4.57E−6 Molar | Percent Growth (RPMI-8226; [3]): −57% | Percent Growth (RPMI-8226; [4]): −27% | Percent Growth (RPMI-8226; [5]): 53% | Percent Growth (RPMI-8226; [6]): 75% | Percent Growth (RPMI-8226; [7]): 77% | TGI (U251; 48 h): 2.09E−5 Molar | Percent Growth (U251; [3]): −61% | Percent Growth (U251; [4]): 28% | Percent Growth (U251; [5]): 94% | Percent Growth (U251; [6]): 95% | Percent Growth (U251; [7]): 98% | TGI (HT29; 48 h): >1.00E−4 Molar | Percent Growth (HT29; [3]): 3% | Percent Growth (HT29; [4]): 17% | Percent Growth (HT29; [5]): 104% | Percent Growth (HT29; [6]): 105% | Percent Growth (HT29; [7]): 104% | GI50 (SK-OV-3): 21 µM | CC50 (SK-OV-3; read-out: LC50): > 100 µM | GI50 (HCC-2998): > 100 µM | CC50 (HCC-2998; read-out: LC50): > 100 µM | GI50 (DU-145): 4.97 µM | CC50 (DU-145; read-out: LC50): 78.4 µM | TGI (TK-10; 48 h): 4.05E−5 Molar | Percent Growth (TK-10; [3]): −38% | Percent Growth (TK-10; [4]): 59% | Percent Growth (TK-10; [5]): 105% | Percent Growth (TK-10; [6]): 103% | Percent Growth (TK-10; [7]): 98% | GI50 (MCF7 [1]): 3.42 µM | CC50 (MCF7 [1]; read-out: LC50): > 100 µM | TGI (M14; 48 h): 1.16E−5 Molar | Percent Growth (M14; [3]): −56% | Percent Growth (M14; [4]): 4% | Percent Growth (M14; [5]): 81% | Percent Growth (M14; [6]): 82% | Percent Growth (M14; [7]): 90% | GI50 (IGROV1): 3.85 µM | CC50 (IGROV1; read-out: LC50): 79.2 µM | TGI (UACC-62; 48 h): >1.00E−4 Molar | Percent Growth (UACC-62; [3]): 60% | Percent Growth (UACC-62; [4]): 82% | Percent Growth (UACC-62; [5]): 97% | Percent Growth (UACC-62; [6]): 102% | Percent Growth (UACC-62; [7]): 100% | TGI (OVCAR-3; 48 h): 1.72E−5 Molar | Percent Growth (OVCAR-3; [3]): −53% | Percent Growth (OVCAR-3; [4]): 16% | Percent Growth (OVCAR-3; [5]): 116% | Percent Growth (OVCAR-3; [6]): 115% | Percent Growth (OVCAR-3; [7]): 114% | GI50 (HOP-62): 8.96 µM | CC50 (HOP-62; read-out: LC50): 73.1 µM | TGI (NCI-H23; 48 h): >1.00E−4 Molar | Percent Growth (NCI-H23; [3]): 36% | Percent Growth (NCI-H23; [4]): 65% | Percent Growth (NCI-H23; [5]): 100% | Percent Growth (NCI-H23; [6]): 100% | Percent Growth (NCI-H23; [7]): 101% | TGI (KM12; 48 h): 2.09E−5 Molar | Percent Growth (KM12; [3]): −28% | Percent Growth (KM12; [4]): 13% | Percent Growth (KM12; [5]): 105% | Percent Growth (KM12; [6]): 112% | Percent Growth (KM12; [7]): 107% | GI50 (788-0): 2 µM | TGI (OVCAR-5; 48 h): >1.00E−4 Molar | Percent Growth (OVCAR-5; [3]): 27% | Percent Growth (OVCAR-5; [4]): 72% | Percent Growth (OVCAR-5; [5]): 95% | Percent Growth (OVCAR-5; [6]): 103% | Percent Growth (OVCAR-5; [7]): 104% | TGI (SNB-19; 48 h): >1.00E−4 Molar | Percent Growth (SNB-19; [3]): 12% | Percent Growth (SNB-19; [4]): 82% | Percent Growth (SNB-19; [5]): 87% | Percent Growth (SNB-19; [6]): 95% | Percent Growth (SNB-19; [7]): 92% | TGI (SK-MEL-5; 48 h): >1.00E−4 Molar | Percent Growth (SK-MEL-5; [3]): 11% | Percent Growth (SK-MEL-5; [4]): 28% | Percent Growth (SK-MEL-5; [5]): 89% | Percent Growth (SK-MEL-5; [6]): 100% | Percent Growth (SK-MEL-5; [7]): 96% | TGI (MCF7 [2]; 48 h): 4.51E−5 Molar | Percent Growth (MCF7 [2]; [3]): −8% | Percent Growth (MCF7 [2]; [4]): 16% | Percent Growth (MCF7 [2]; [5]): 89% | Percent Growth (MCF7 [2]; [6]): 91% | Percent Growth (MCF7 [2]; [7]): 96% | TGI (OVCAR-8; 48 h): 7.72E−5 Molar | Percent Growth (OVCAR-8; [3]): −4% | Percent Growth (OVCAR-8; [4]): 29% | Percent Growth (OVCAR-8; [5]): 98% | Percent Growth (OVCAR-8; [6]): 100% | Percent Growth (OVCAR-8; [7]): 99%
